In patent publication US20230381142A1, “ANTILEISHMANIAL COMPOUNDS, COMPOSITIONS AND USE THEREOF” (TRUSTEES OF BOSTON UNIVERSITY, priority 2022, published 2023):
Like-named read-outs stand apart in the source and are kept apart here. Marks after values point to notes of the source that are not given here.

Tests used:
B10R cells = experiment: UCSD infection assay, host cell cytotoxicity (CC50); format: cell-based; details: host B10R cells
[1] = system: L. donovani intracellular amastigotes infecting THP-1 cells; experiment: High content intracellular amastigote assay in THP-1 cells (Assay Conditions B; CDIPD screen); format: cell-based, Leishmania donovani; details: 10 μM; THP-1 cells; footnote b
Description: (§1) Assay Conditions B: THP-1 cells (human acute monocytic leukemia cell line—ATCC TIB202) were grown in RPMI supplemented with 10% Fetal Bovine Serum (FBS) and 50 μM 2-mercaptoethanol at 37° C. in 5% CO2. THP-1 were seeded in microwell plates at 5×10^5 cells/mL density and treated with 0.1 μM phorbol myristate acetate (PMA, Sigma) at 37° C. for 48 h for differentiation into adherent, non-dividing macrophages. After activation by PMA, cells were washed and incubated with complete RPMI medium containing stationary phase Leishmania promastigotes (L. major: strain LV39; L. donovani, strain 1S/Cl2D) at a 1:15 parasite-cell ratio. Compounds were added and incubated at 37° C. for 72 h. Cells were then washed with phosphate-buffered saline (PBS), fixed for 30 minutes with 4% formaldehyde, rinsed again with PBS, stained for 2 h with 4′,6′-diamidino-2-phenylindole (DAPI 300 nM) and finally washed with PBS. In a collaborative effort to identify new antileishmanial chemotypes with minimal host cell cytotoxicity, compounds from the Boston University Center for Molecular Discovery (BUCMD) screening collection were assessed in a phenotypic, high content primary screen at the University of California's Center for Discovery and Innovation in Parasitic Diseases (CDIPD) for the ability to inhibit growth of L. donovani intracellular amastigotes infecting THP-1 cells. […] Dose-response testing in L. donovani (both intracellular amastigotes and promastigotes) confirmed concentration-dependent growth inhibition of both morphologies of the parasite at low micromolar EC50 values for both compounds (Table 1).

[2] = system: L. major (strain LV39) intracellular amastigotes infecting THP-1 cells; experiment: High content intracellular amastigote assay in THP-1 cells (Assay Conditions B); format: cell-based, Leishmania major; details: THP-1 cells; values marked b
Description: as §1

[3] = system: L. donovani promastigotes (strain 1S/Cl2D); experiment: Promastigote assay, CellTiter-Glo (Assay Conditions F); format: cell-based; details: Leishmania donovani; footnote f; read-out: L. donovani promastigotes EC50
Description: (§2) Assay Conditions F: Leishmania promastigotes (L. major: strain LV39; L. donovani, strain 1S/Cl2D) were maintained as previously described in PloS Negl Trop Dis (2015) 9(3):e0003588 and Pathogens (2021) 10(5):593) at 28° C. in M199 media supplemented with glutamine, adenosine, folic acid, hemin, HEPES, 10% Fetal Bovine Serum (Sigma-Aldrich, cat. no. F2442) and 1% Penicillin-Streptomycin (Gibco, cat. no. 15140122). For the promastigote assay, we followed the method previously described in PloS Negl Trop Dis (2011) 5(7):e1253. Briefly, promastigotes were incubated with the compounds for 72 h at 27° C., then lysed by adding 50 μL of CellTiter-Glo (Promega) and placed on an orbital shaker for 5 min at room temperature. After lysis, the resulting ATP-bioluminescence was measured using the Analyst HT plate reader (Molecular Devices).

[4] = system: L. major promastigotes (strain LV39); experiment: as above; format: cell-based; details: Leishmania major; footnote f; read-out: L. major promastigotes EC50
Description: as §2

THP-1 cells = experiment: Host THP-1 cell cytotoxicity in the CDIPD high content screen; format: cell-based, human; details: Homo sapiens, THP-1; 10 μM; footnote b; read-out: THP-1 host cell % growth inhibition at 10 μM
Description: as §1

[5] = system: L. donovani intracellular amastigotes infecting THP-1 macrophages; experiment: GSK intramacrophage L. donovani assay (LD AMMAC, inMac; Assay Conditions C); format: cell-based; details: Leishmania donovani; THP-1 cells; values marked c; read-out: L. donovani amastigotes EC50 (THP-1 cells)
In short: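 L. donovani amastigotes within THP-1 macrophages; EC50 based on average intracellular amastigotes per infected cell (AMMAC). Infected-cell percentage (INFCELL) and host-cell number (MAC) also read, the latter as toxicity output.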

[6] = GSK inMac assay, host cell toxicity readout (LD MAC); format: cell-based, human; details: human; footnote c; read-out: THP-1 Host Cell CC50
In short: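 Intramacrophage L. donovani assay in THP-1 macrophages; host toxicity taken from host cell number per well, giving MAC EC50. Run alongside amastigote-per-cell and infected-cell readouts in the same wells.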

[7] = system: L. donovani intracellular amastigotes in B10R cells; experiment: UCSD L. donovani infection assay (Assay Conditions D); format: cell-based; details: B10R cells; for L. donovani amastigotes EC75 (B10R cells): footnote d; for EC50: Leishmania donovani, values marked d, read-out: L. donovani amastigotes EC50 (B10R cells)
In short: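 B10R cells (300/well) infected with stationary-phase L. donovani WT promastigotes at 20 parasites/cell in DMEM high-glucose, 5% FBS, with compounds 72 h at 37° C., 5% CO2. Formaldehyde-fixed, DAPI-stained, imaged by high-content microscopy; 10-point 2-fold dilutions (screen at 10 μM) gave EC50 and host CC50.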

[8] = system: L. braziliensis (strain BA788) in J774 cells; experiment: J774 luciferase infection assay (Assay Conditions E); format: cell-based, Leishmania braziliensis; details: footnote e
In short: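 J774A.1 macrophages infected 24 h with luciferase/GFP-expressing stationary-phase promastigotes (L. major Friedlin or L. braziliensis BA788, 1:10 parasite:cell), washed, then exposed 48 h at 37 °C, 5% CO2 to 8-point 2-fold dilutions. OneTiterGlo bioluminescence read; EC75 calculated.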

[9] = system: L. braziliensis-infected macrophages; experiment: Macrophage (BMDM) infection with L. braziliensis and exposure to CMLDs; format: cell-based, Leishmania braziliensis; details: for number of amastigotes per 100 macrophages / percentage of infected macrophages / EC50: 24 h exposure; for EC50: Leishmania braziliensis, Macrophage, percentage of infected macrophages, read-out: EC50 against L. braziliensis-infected macrophages
Description: Leishmania braziliensis (MIHOM/BR/00/BA788) and L. major (Friedlin) promastigotes were maintained in Schneider's medium (SIGMA) supplemented with 10% heat-inactivated FCS, 100 U/ml penicillin, 100 μg/ml streptomycin (all from Invitrogen).
BMDM were obtained as described above. Cells were resuspended in DMEM medium supplemented with 100 U/mL penicillin, […] streptomycin, and 10% heat-inactivated Fetal Bovine Serum (all from Invitrogen) and seeded at a density of 3×10^5 cells per well in 24-well culture plates. Monolayers received 3×10^6 cells L. braziliensis promastigotes and were incubated at 37° C. in supplemented DMEM medium for 24 h. Infected macrophages were then washed to remove non-internalized parasites. Compounds CMLD 011128, CMLD010947, CMLD010498, and CMLD011494 were added at different concentrations. After 24 hours, cells were extensively washed, fixed and stained with hematoxylin and eosin (H&E). The number of infected cells and of intracellular amastigotes were counted by optical microscopy in 200 macrophages. Positive controls consisted of cultures treated with Amphotericin B (0.25 μg/mL, Invitrogen). Cultures were performed in quintuplicate. Alternatively, infected macrophages were treated as described, monolayers were extensively washed and the medium was replaced by 0.5 ml of supplemented Schneider medium. Cells were cultured for seven additional days at 26° C., when number of viable promastigotes was determined using hemocytometer.
Results were expressed as the mean percentage reduction of infected cells compared with untreated control wells. Half-maximal effective concentrations (EC50) were determined by sigmoidal regression curves using Prism 7.0 software (GraphPad Software Inc.)

[10] = system: L. major-infected murine macrophages; experiment: Macrophage infection with L. major and exposure to CMLDs; format: cell-based, Leishmania major; details: for number of intracellular amastigotes / percentage of infected cells: L. major, only observed at the highest dose (1 μM)
[11] = system: macrophages from bone marrow; experiment: Cellular viability of macrophages (Cell Titer Glo); format: cell-based, murine; details: 500-1000 nM, 24 h
Description: Briefly, macrophages were obtained from bone marrow and seeded at a density of 1×10^6 cells per well in 24-well culture plates. After 2 hours, cells were treated with compounds at two concentrations (500 and 1000 nm) for 24 hours. Cell viability was determined using Cell Titer Glo (Promega), according to manufacturer's instructions. For positive control, pararosaniline chloride was used.

[12] = UCSD infection assay, host cell cytotoxicity (CC50); format: cell-based; details: mouse, B10R host cells infected with L. donovani; footnote d
[13] = system: L. major (strain Friedlin) in J774 cells; experiment: J774 luciferase infection assay (Assay Conditions E); format: cell-based, Leishmania major; details: values marked e
Description: Assay Conditions E: J774 cells (ATCC J774A.1 were grown in DMEM supplemented with 10% Fetal Bovine Serum (FBS) and 1% Penicillin-Streptomycin at 37° C. in 5% CO2. Leishmania parasites expressing luciferase and GFP were grown as described in Front. Cell. Infect. Microbiol (2019) 9:237. J774 cells were seeded in microwell plates at 3×10^5 cells/mL density. Cells were washed with PBS and incubated with complete DMEM medium containing stationary phase Leishmania promastigotes (L. major: strain Friedlin; L. braziliensis, strain BA788) at a 1:10 parasite-cell ratio for 24 h. Cells were washed with PBS. Cells and compounds were incubated for 48 h at 37° C. and 5% C02. Compounds were tested in 8-point 2-fold serial dilution in 4 technical replicates, and 2 biological replicates. After 48 h, OneTiterGlo (Promega) (100 μl) was added to each well. Plates were incubated for 15 min and bioluminescence was measured using a plate reader (Molecular Devices). Effective concentration inducing 75% activity (EC75) was calculated using GraphPad Prism Software (version 9.0).

[14] = system: L. donovani intracellular amastigotes infecting THP-1 macrophages; details: GlaxoSmithKline Phase I VL candidates; read-out: intramacrophage EC50; cited from earlier work

COc1ncccc1C1c2c(CC(C)C)n[nH]c2C(=O)N1c1ccc2ncnn2c1 (stereo not shown) [BUCMD00162]
B10R Host Cell CC50 (B10R cells): >10 µM

COc1ccc(N2C(=O)c3[nH]nc(CC(C)C)c3C2c2ccccc2)cc1 (stereo not shown) [CMLD007427]
L. donovani amastigotes % GI at 10 μM (THP-1 cells) [1]: 100.0%
L. major amastigotes EC75 (THP-1 cells) [2]: 1.7^b μM
EC50 [3]: 2.4 µM
EC50 [4]: 4.2 µM
inhibition at 10 µM (THP-1 cells): 11%
EC50 [5]: 3.2 µM
CC50 [6]: 31.6 µM
L. donovani amastigotes EC75 (B10R cells) [7]: 1.1 µM

COc1ccc(N2C(=O)c3[nH]nc(CC(C)C)c3C2c2ccc(F)cc2)cc1 (stereo not shown) [CMLD007431]
L. donovani amastigotes % GI at 10 μM (THP-1 cells) [1]: 99.0%
L. major amastigotes EC75 (THP-1 cells) [2]: 1.3^b μM
EC50 [3]: 2 µM
EC50 [4]: 4.4 µM
inhibition at 10 µM (THP-1 cells): 13%
EC50 [5]: 2.5 µM
CC50 [6]: > 20 µM
L. donovani amastigotes EC75 (B10R cells) [7]: 1.0 µM

Cc1cc(F)ccc1C1c2c(CC(C)C)n[nH]c2C(=O)N1c1ccc2ncnn2c1 (stereo not shown) [CMLD010948]
CC50 [6]: > 20 µM
L. donovani amastigotes EC75 (B10R cells) [7]: 1.1 µM
EC50 [7]: 0.9 µM
L. braziliensis amastigotes EC75 (J774 cells) [8]: 5.5 µM
leishmanicidal effect on L. braziliensis infection in vitro [9]: reduces L. braziliensis infection
number of amastigotes per 100 macrophages ([9]; L. braziliensis): significant decrease
percentage of infected macrophages ([9]; L. braziliensis): significant decrease
EC50 [9]: > 5 µM
L. major infection in vitro [10]: reduce L. major infection
number of intracellular amastigotes [10]: significant decreased
percentage of infected cells [10]: significant decreased
cell viability of macrophages [11]: did not change cell viability

COc1cc(F)ccc1C1c2c(CC(C)C)n[nH]c2C(=O)N1c1ccc(Br)cc1 (stereo not shown) [CMLD011494]
CC50 [6]: 4 µM
L. donovani amastigotes EC75 (B10R cells) [7]: 0.1 µM
EC50 [7]: 0.1 µM
CC50 at 72 h [12]: 3.98 µM
L. major amastigotes EC75 (J774 cells) [13]: 2.8^e μM
L. braziliensis amastigotes EC75 (J774 cells) [8]: 5.2 µM
leishmanicidal effect on L. braziliensis infection in vitro [9]: reduces L. braziliensis infection
number of amastigotes per 100 macrophages ([9]; L. braziliensis): significantly reduced
percentage of infected macrophages ([9]; L. braziliensis): significantly reduced
number of viable promastigotes after exposure of infected BMDM ([9]; L. braziliensis, culture in Schneider medium): significantly reduced
EC50 [9]: 1.64 µM
L. major infection in vitro [10]: reduce L. major infection
number of intracellular amastigotes [10]: significant decreased
percentage of infected cells [10]: significant decreased
cell viability of macrophages [11]: did not change cell viability

C[C@H]1CN(c2n[nH]c3nc(N[C@H]4CC[C@H](NS(=O)(=O)CCC(F)(F)F)CC4)ncc23)CCO1 [GSK3186899]
EC50 [14]: 1.4 µM

O=C(Nc1ccc(F)c(-c2ccn3c(N4CCOCC4)cnc3n2)c1)N1CCCC1 [GSK3494245]
EC50 [14]: 1.6 µM
